Laboratory results: the NIST ThermoML archive (doi:10.1016/j.fluid.2018.10.006)
Several values for one entry are separate records, joined by “and”; a condition that tells them apart may be missing. Equal entries are not always repeated.

Details: Fluid (supercritical or subcritical phases), Coaxial cylinder method

CCCCCC [hexane]
Details	thermal conductivity
511.79 K, 4180 kPa	0.07039 W/m/K
511.79 K, 4190 kPa	0.07026 W/m/K
511.79 K, 4200 kPa	0.07026 W/m/K
511.79 K, 4400 kPa	0.07099 W/m/K
511.79 K, 4600 kPa	0.07159 W/m/K
511.79 K, 4800 kPa	0.07179 W/m/K
511.79 K, 5400 kPa	0.07303 W/m/K
511.79 K, 6000 kPa	0.074 W/m/K
511.79 K, 7000 kPa	0.07567 W/m/K
511.79 K, 8000 kPa	0.07705 W/m/K
511.79 K, 9000 kPa	0.07812 W/m/K
511.79 K, 10000 kPa	0.07922 W/m/K
513.09 K, 2634 kPa	0.0455 W/m/K
513.09 K, 2645 kPa	0.04562 W/m/K
513.09 K, 2653 kPa	0.04575 W/m/K
513.09 K, 2654 kPa	0.04575 W/m/K
513.09 K, 2655 kPa	0.04575 W/m/K
513.09 K, 2661 kPa	0.04587 W/m/K
513.09 K, 2722 kPa	0.04549 W/m/K
513.09 K, 2740 kPa	0.04678 W/m/K
513.09 K, 2760 kPa	0.04705 W/m/K
513.09 K, 2763 kPa	0.04704 W/m/K
513.09 K, 2839 kPa	0.04831 W/m/K
513.09 K, 2849 kPa	0.04859 W/m/K
513.09 K, 2879 kPa	0.04916 W/m/K
513.09 K, 2894 kPa	0.04931 W/m/K
513.09 K, 2909 kPa	0.0496 W/m/K
513.09 K, 2931 kPa	0.05008 W/m/K
513.09 K, 2953 kPa	0.05053 W/m/K
513.09 K, 2983 kPa	0.05146 W/m/K
513.09 K, 3010 kPa	0.05237 W/m/K
513.09 K, 3034 kPa	0.05319 W/m/K
513.09 K, 3054 kPa	0.05386 W/m/K
513.09 K, 3098 kPa	0.05597 W/m/K
513.09 K, 3114 kPa	0.05684 W/m/K
513.09 K, 3152 kPa	0.05939 W/m/K
513.09 K, 3163 kPa	0.06043 W/m/K
513.09 K, 3169 kPa	0.06085 W/m/K
513.09 K, 3176 kPa	0.06151 W/m/K
513.09 K, 3180 kPa	0.06217 W/m/K
513.09 K, 3184 kPa	0.06262 W/m/K
513.09 K, 3186 kPa	0.06285 W/m/K
513.09 K, 3193 kPa	0.06308 W/m/K
513.09 K, 3195 kPa	0.06308 W/m/K
513.09 K, 3200 kPa	0.06331 W/m/K
513.09 K, 3205 kPa	0.06425 W/m/K
513.09 K, 3207 kPa	0.06497 W/m/K
513.09 K, 3212 kPa	0.06596 W/m/K
513.09 K, 3216 kPa	0.06647 W/m/K
513.09 K, 3231 kPa	0.06898 W/m/K
513.09 K, 3232 kPa	0.06917 W/m/K
513.09 K, 3234 kPa	0.06942 W/m/K
513.09 K, 3235 kPa	0.06951 W/m/K
513.09 K, 3236 kPa	0.06967 W/m/K
513.09 K, 3237 kPa	0.06987 W/m/K
513.09 K, 3238 kPa	0.07001 W/m/K
513.09 K, 3240 kPa	0.07024 W/m/K
513.09 K, 3242 kPa	0.07052 W/m/K
513.09 K, 3243 kPa	0.07067 W/m/K
513.09 K, 3244 kPa	0.07081 W/m/K
513.09 K, 3246 kPa	0.0711 W/m/K
513.09 K, 3247 kPa	0.07125 W/m/K
513.09 K, 3248 kPa	0.07133 W/m/K
513.09 K, 3249 kPa	0.07154 W/m/K
513.09 K, 3251 kPa	0.07169 W/m/K
513.09 K, 3252 kPa	0.07184 W/m/K
513.09 K, 3253 kPa	0.07198 W/m/K
513.09 K, 3254 kPa	0.07213 W/m/K
513.09 K, 3255 kPa	0.07228 W/m/K
513.09 K, 3256 kPa	0.07243 W/m/K
513.09 K, 3257 kPa	0.07258 W/m/K
513.09 K, 3258 kPa	0.07265 W/m/K
513.09 K, 3260 kPa	0.07284 W/m/K
513.09 K, 3261 kPa	0.07295 W/m/K and 0.073 W/m/K
513.09 K, 3262 kPa	0.07311 W/m/K
513.09 K, 3263 kPa	0.07319 W/m/K
513.09 K, 3265 kPa	0.07338 W/m/K
513.09 K, 3266 kPa	0.07346 W/m/K
513.09 K, 3267 kPa	0.07354 W/m/K
513.09 K, 3274 kPa	0.07412 W/m/K
513.09 K, 3277 kPa	0.07428 W/m/K
513.09 K, 3279 kPa	0.07428 W/m/K
